Reference: US12456543B2, “Enzymes” (UNIVERSITY COURT OF THE UNIVERSITY OF ST ANDREWS, priority 2018, dated 2025)

Legend:
[1] = Halogenase activity of Dsg205 and Dsg701 against 600 member compound library, LC-MSMS assay; format: biochemical; details: substrate of Dsg205/Dsg701, enzyme not specified
Dsg407 = experiment: Substrates accepted by Dsg407; details: purified Dsg407, NaBr or NaI, pH 7.2
[2] = tested on: tryptophan 7-halogenase RebH; details: natural substrate tryptophan; based on product production; cited from earlier work
[3] = tested on: tryptophan 5-halogenase PyrH; details: natural substrate tryptophan; based on product production; cited from earlier work

| Compound | accepted as substrate by Dsg407 (Dsg407) | further results |
| --- | --- | --- |
| Nc1cccc2cccnc12 [8-quinolamine] | – | conversion of substrate, estimated [1]: ~75% |
| N[C@H](Cc1c[nH]c2ccccc12)C(=O)O [D-tryptophan] | accepts | – |
| c1cc2cc[nH]c2cn1 [Dsg 6-azaindole, 6-azaindole] | also a substrate of Dsg407 | – |
| N[C@@H](Cc1c[nH]c2ccccc12)C(=O)O [L-tryptophan] | not | – |
| N[C@@H](Cc1c[nH]c2ccccc12)C(=O)O [tryptophan] | – | Km [2]: 18.7 ± 1.3 µM; Kcat [3]: 0.0417 ± 0.0067 s⁻¹ |
